Where “and” joins values, the source holds several entries; their conditions need not be identical. Equal entries are not always repeated. Structures can show the parent of a compound that is named as a salt.

Test [1] has as its system antibody secreting cells in the spleen. As to the kind of experiment: Kennedy Plaque Assay (humoral immune system depressed by 6-mercaptopurine; number of plaques). In kind it is in vivo. The conditions noted are these: for change in vivo at 6.25 mg/kg: ip, 60 mg/Kg of 6 MP plus 6.25 mg/Kg (i.p.) of compound, read-out: Percent Restoration (+) or Suppression (-). The method, then:
In this assay, in which the in vitro model used was the Kennedy modification of the Jerne (or plaque) technique (J. C. Kennedy et al, Immunol., 20, p. 253 (1971)), the animal's humoral immune system is depressed artificially by the known immunosuppressant drug, 6-mercaptopurine (6-MP), and then the ability of a drug to either suppress it further or restore it towards normal is evaluated. The change in the number of plaques, which is a direct correlate of the change in the number of antibody secreting cells in the spleen, is used to measure this effect. For example, the compound of Example 11 results in greater than 100% restoration of the number of plaques and thus causes an immunoenhancement of the humoral system. In contrast, the compound of Example 28 results in about 24% further suppression of the number of plaques and thus behaves as an immunosuppressant.
of 6 MP plus 6.25 mg/Kg (i.p.)
^1 without 6MP treatment
^2 percent change from control (i.e., without 6MP)

The subject of test [2] is carrageenan-induced paw edemas. Kind of test: Anti-inflammatory assay, carrageenan-induced paw edema. In kind it is in vivo, Male, Sprague-Dawley rats. The method, then:
The anti-inflammatory properties of various compounds of this invention were determined by carrageenan-induced paw edemas of test rats. Male, Sprague-Dawley rats (Blue Spruce Farm) were ordered at 125-140 g, housed for one week, and allowed food and water ad libitum. At the time of the experiments, only rats weighing 160-200 g were used.
All compounds were dissolved or suspended in a 0.5% water solution of Methocel and orally administered to groups of six rats each. Control rats received Methocel only. Two hours later (unless otherwise stated), paw edema was induced by subcutaneous injection into the plantar surface of the right hind paw of 0.1 ml of a 1.0% homogenized suspension of carrageenan.
Immediately, the volume of the paw was measured by immersing it in mercury to above the lateral mateolus. The mercury in a glass cylinder 25 mm in diameter and 60 mm deep was connected at the bottom on the cylinder by a column of water to a Statham transducer (model P23BB), range 0-5 cm of mercury pressure. The volume was recorded electronically on a Beckman recorder, R511. Three hours later, the inflamed paw volume was measured again, and the change in volume was recorded for each group. The percent inhibition of edema was calculated using the control group paw volume as 100% edema, i.e., as (the change in edema in the control group less the change in edema in the test group) times 100 divided by the change in edema in the control group.
(In general: The carrageenan paw model is a standard test of acute inflammation.)

A further test concerns mouse hepatitis virus. Kind of test: Antiviral assay - hepatitis in mice. The format is in vivo. The conditions noted are these: once daily for 3 days; for Mean Liver Score: day 4, 0 (normal) to 4 (extreme discoloration); for Percent Survival: day 21. The method, then: Female mice weighing approximately 21-24 grams were inoculated with 0.1 ml of a mouse liver suspension containing mouse hepatitis virus, which liver suspension is at a dilution of 10^-5.5. Starting twenty-four hours post-virus inoculation, the animals were intraperitoneally ("i.p.") or orally administered the test compound(s) once daily for 3 days. On day 4, one third to one half of each group of mice were sacrificed and their liver removed for examination. Each liver was scored and assigned a number from 0 (normal liver) to 4 (extreme discoloration). The mean liver score per group was computed. The number of animals surviving until termination of the study (day 21) was also recorded. Anti-hepatitis activity is evidenced by increased survivor numbers and improved liver scores.

[3] abbreviates: 50 mg/Kg p.o., dosed two hours before carrageenan.

Regarding `Clc1cccc(Cl)c1SC1CCCN2CC(c3ccccc3)N=C12` (stereo not drawn) [Example 20, 2,3,5,6,7,8-Hexahydro-2-phenyl-8-(2,6-dichlorophenylthio)imidazo[1,2-a]pyridine hydrochloride], in test [1], the change in vivo at 6.25 mg/kg is -49%. For the same compound, the “Percent Inhibition of carrageenan induced edema” value (shortened to “Percent Inhibition”) in test [2] (100 mg/Kg p.o., dosed two hours before carrageenan, hydrochloride) was 33.3% and 39.6%.
Turning to `COC1(OC)CCCN2CC(c3ccccc3)N=C21` (stereo not drawn) [Example 23, 2,3,5,6,7,8-Hexahydro-2-phenyl-8,8-dimethoxyimidazo [1,2-a]pyridine hydrochloride], in test [1], the change in vivo at 6.25 mg/kg is 64%. For the same compound, the “Percent Inhibition” value in test [2] (50 mg/Kg p.o., 20 hrs. predosed) is given as 32.1%; in test [2] (setting [3]), -3.2%. The “Mean Liver Score” value came to 1.7 in the test with mouse hepatitis virus (6.25 mg/Kg i.p., control 2.6); 1.0 in the test with mouse hepatitis virus (12.5 mg/Kg i.p., control 2.6 (Examples 11, 16, 23), 3.4 (25, 26)); 1.3 with mouse hepatitis virus (25 mg/Kg i.p., control 2.6 (Examples 11, 23), 3.4 (25, 26)). The “Percent Survival” value with mouse hepatitis virus (6.25 mg/Kg i.p., control 5%) amounted to 40%; in the test with mouse hepatitis virus (12.5 mg/Kg i.p., control 5% (Examples 11, 16, 23), 6% (25, 26)), 70%; in the test with mouse hepatitis virus (25 mg/Kg i.p., control 5% (Examples 11, 23), 6% (25, 26)), 50%.
In the case of `c1ccc(SC2(Sc3ccccc3)CCCN3CC(c4ccccc4)N=C32)cc1` (stereo not drawn) [Example 17, 2,3,5,6,7,8-Hexahydro-2-phenyl-8,8-di(phenylthio)imidazo[1,2-a]pyridine fumarate], the “percent change from control (i.e., without 6MP)” value in test [1] (without 6MP treatment, 6.25 mg/Kg (i.p.) of compound) is -37%. The “Percent Inhibition” value in test [2] (setting [3]) is 38.6%.
Regarding `CC(C)SC1CCCN2CC(c3ccccc3)N=C12` (stereo not drawn) [Example 18, 2,3,5,6,7,8-Hexahydro-2-phenyl-8-i-propylthioimidazo[1,2-a]pyridine sulfate], in test [1], the change in vivo at 6.25 mg/kg stood at 97%. Moreover, the “Percent Inhibition” value in test [2] (setting [3]) was found to be 40.4%.

Source of the values: patent US4560758A, “Process for preparing pyrrolo[1,2-a]imidazoles and imidazo[1,2-a]pyridines” (Pennwalt Corporation, priority 1984, dated 1985).
